Measurements published in patent publication US20210393547A1, “USE OF EMODIN IN TREATING RETINAL ISCHEMIA OR A DISEASE, CONDITION, OR DISORDER ASSOCIATED WITH RETINAL ISCHEMIA” (priority 2020, published 2021).

How the values were obtained:
[1] = tested on: retinal ischemia in Wistar rats; test: ERG b-wave recording after raised-IOP retinal ischemia/reperfusion; assay type: in vivo, rat; details: for ERG b-wave ratio (treated eye to untreated fellow eye): mean±S.E.M.; for ERG b-wave amplitude: Wistar rat
Method: Emodin was purchased from Sigma-Aldrich (E7881; 90%; storage at 2-8° C.; from Frangula bark; St. Louis, Mo., United States). Drug administration for different procedures, namely ERG, fluorogold RGC labelling, cresyl violet retinal staining and Western blot assays, were described in Tables 3 to 6. Vehicle or emodin (5 μL) was administered via an intravitreous injection route so that these agents were then able to be directly diffused to the target. Emodin was dissolved in vehicle (DMSO:distilled water=1:3). The defined final cellular concentrations of administered drug were 0.25 or 0.5 μM, which were achieved after 40 times dilution from the stock concentrations, namely 10 or 20 μM, based on an arbitrary definition of the vitreous volume as 200 μL. To test a wider range of dose-response, 4 μM of emodin was thus added in the animal experiments. The Vehicle+IR and Emo+IR groups (pre-ischemic administration of emodin 4, 10 or 20 μM) were subjected to following the experimental procedures; these were initial pre-ischemic intravitreous injection (vehicle or emodin), retinal ischemia induction 1 day later, and sacrifice of the animal on the following day to allow the various post-mortem procedures except ERG. In the post-ischemic treatment group, in order to decrease the number of animals used, the present invention only used a single emodin concentration of 20 μM. Furthermore, intravitreous emodin was given 1 day after initial retinal ischemia induction and animals were sacrificed the following day to allow the performance of various post-mortem procedures as mentioned above.
The IOP procedure used raised the IOP and was designed to cause retinal ischemia in Wistar rats and simulate ischemic retinal disorders. The rats were anesthetized and constrained with a sterotaxic frame. A 30-gauge needle connected to an elevated saline bottle was attached to anterior chamber of the rat's eye. The pressure exerted by the saline inside the bottle was controlled to 120 mmHg. This procedure was conducted for 1 hour. Successful retinal ischemia induction was confirmed by observing that the whitening of the retina took place. Throughout the experiments, the animals were kept on heat mats to maintain their temperature. The sham procedure involved keeping the pressure in saline bottle 0 mmHg.
Animals were given anesthesia prior to the flash ERG measurements. For the Sham or pre-ischemic treatment group (intravitreous injection of emodin or vehicle 1 day before ischemia; Emodin+IR or Vehicle+IR), flash ERG responses were measured before the sham procedure, IR procedures or any drug administration (day 0), and one day after the sham procedure or IR procedure with pre-ischemic intravitreous injection. In the post-ischemic treatment group, ERG recordings were collected pre-ischemia (day 0), and post-ischemia (at timepoints: 1 day after ischemia; 1 day after post-ischemic intravitreous injection of emodin). Dark adaption and pupil dilation using 1% tropicamide and 2.5% phenylephrine were carried out 8 hours before the ERG measurement. The ERG recording machinery was purchased from the Grass-Telefactor Company (AstroNova, QC, Canada) and included a stimulator (PS22), a regulated power supply (RPS107), and an amplifier (P511). A strobe light (0.5 Hz), which acted as the source of stimulus, was placed 2 cm directly in front of the rat's eye. Fifteen consecutive measurements (10 kHz) were retrieved every two seconds. The amplitudes were calculated to obtain an average. To make comparisons between the various groups, the ratios of the b-wave amplitude of one eye (sham procedure or ischemic insult with defined agents) to that of the untreated fellow normal eye were analyzed.

[2] = tested on: retinal ischemia in Wistar rats; test: Cresyl violet stained retinal thickness after retinal ischemia/reperfusion; assay type: in vivo, rat; details: n=10, mean±SE
Method: Emodin was purchased from Sigma-Aldrich (E7881; 90%; storage at 2-8° C.; from Frangula bark; St. Louis, Mo., United States). Drug administration for different procedures, namely ERG, fluorogold RGC labelling, cresyl violet retinal staining and Western blot assays, were described in Tables 3 to 6. Vehicle or emodin (5 μL) was administered via an intravitreous injection route so that these agents were then able to be directly diffused to the target. Emodin was dissolved in vehicle (DMSO:distilled water=1:3). The defined final cellular concentrations of administered drug were 0.25 or 0.5 μM, which were achieved after 40 times dilution from the stock concentrations, namely 10 or 20 μM, based on an arbitrary definition of the vitreous volume as 200 μL. To test a wider range of dose-response, 4 μM of emodin was thus added in the animal experiments. The Vehicle+IR and Emo+IR groups (pre-ischemic administration of emodin 4, 10 or 20 μM) were subjected to following the experimental procedures; these were initial pre-ischemic intravitreous injection (vehicle or emodin), retinal ischemia induction 1 day later, and sacrifice of the animal on the following day to allow the various post-mortem procedures except ERG. In the post-ischemic treatment group, in order to decrease the number of animals used, the present invention only used a single emodin concentration of 20 μM. Furthermore, intravitreous emodin was given 1 day after initial retinal ischemia induction and animals were sacrificed the following day to allow the performance of various post-mortem procedures as mentioned above. The IOP procedure used raised the IOP and was designed to cause retinal ischemia in Wistar rats and simulate ischemic retinal disorders. The rats were anesthetized and constrained with a sterotaxic frame. A 30-gauge needle connected to an elevated saline bottle was attached to anterior chamber of the rat's eye. The pressure exerted by the saline inside the bottle was controlled to 120 mmHg. This procedure was conducted for 1 hour. Successful retinal ischemia induction was confirmed by observing that the whitening of the retina took place. Throughout the experiments, the animals were kept on heat mats to maintain their temperature. The sham procedure involved keeping the pressure in saline bottle 0 mmHg. After the aforementioned sacrifice of rats, the animals underwent intracardial perfusion with normal saline. The eyeballs were then enucleated, fixed with 4% paraformaldehyde for 1 day at 4° C., dehydrated with ethanol, embedded in paraffin (Tissue-Tek TEC 5; Sakura) and sectioned into 5 μm thickness slices. The sectioned samples were then stained with cresyl violet and examined using a light microscope (Leica). All sectioned retinal samples were photographed under the same magnification (Ilford Pan-F plus film, 50 ASA). The thickness of a retina was determined by sectioning retinal samples at the same distance (1.5 mm from the disc). To evaluate the degree of the injury caused by retinal ischemia, the whole retinal thickness [from the inner limiting membrane (ILM) to the retinal pigment epithelium (RPE) layer] and the inner retinal thickness [from the ILM to the inner nuclear layer (INL)] were measured. All the measurements were carried out by an expert who was unaware of the experimental conditions used to treat the samples.

[3] = Emo10+IR: pre-ischemic intravitreous 10 μM emodin
[4] = Emo20+IR: pre-ischemic intravitreous 20 μM emodin
[5] = IR+Emo20: post-ischemic intravitreous 20 μM emodin

ERG b-wave ratio (treated eye to untreated fellow eye) ([1]; Emo4+IR: pre-ischemic intravitreous 4 μM emodin, n=8, Sham normalized to 1, Vehicle+IR 0.04): 0.08±0.07 | ERG b-wave amplitude ([1]; Emo4+IR: pre-ischemic intravitreous injection of 4 μM emodin followed by IR, Sham 0.87, Vehicle+IR 0.03): 0.07 mV | ERG b-wave ratio (treated eye to untreated fellow eye) ([1]; Emo10+IR: pre-ischemic intravitreous 10 μM emodin, n=4, P<0.001 vs Vehicle+IR): 0.64±0.28 | ERG b-wave amplitude ([1]; Emo10+IR: pre-ischemic intravitreous injection of 10 μM emodin followed by IR): 0.58 mV | ERG b-wave ratio (treated eye to untreated fellow eye) ([1]; Emo20+IR: pre-ischemic intravitreous 20 μM emodin, n=4, P<0.001 vs Vehicle+IR): 0.99±0.18 | ERG b-wave amplitude ([1]; Emo20+IR: pre-ischemic intravitreous injection of 20 μM emodin followed by IR): 0.63 mV | ERG b-wave amplitude ([1]; IR+Emo20: IR followed by post-ischemic intravitreous injection of 20 μM emodin): 0.12 mV | ERG b-wave ratio (treated eye to untreated fellow eye) ([1]; IR+Emo20: post-ischemic intravitreous 20 μM emodin, n=9, P<0.001 vs Vehicle+IR): 0.24±0.09
SMILES: Cc1cc(O)c2c(c1)C(=O)c1cc(O)cc(O)c1C2=O [emodin, 6-methyl-1,3,8-trihydroxyanthraquinone]
inner retina thickness ([2]; Emo4+IR: pre-ischemic intravitreous 4 μM emodin, Sham 79.90, Vehicle+IR 20.97): 38.60±1.01 μm | whole retina thickness ([2]; Emo4+IR: pre-ischemic intravitreous 4 μM emodin, Sham 186.50, Vehicle+IR 71.80): 87.40±0.60 μm | inner retina thickness [2, 3]: 70.05±0.60 μm | whole retina thickness [2, 3]: 153.20±1.48 μm | inner retina thickness [2, 4]: 70.65±2.06 μm | whole retina thickness [2, 4]: 170.10±0.10 μm | inner retina thickness [2, 5]: 69.65±0.68 μm | whole retina thickness [2, 5]: 125.45±1.68 μm
